Experimental data reported in article PMC4457840, “Differential Inhibition of Signal Peptide Peptidase Family Members by Established γ-Secretase Inhibitors” (PLoS ONE, 2015).

Key:
SPPL2a = molecular target: T1, SPPL2a (Homo sapiens, UniProt Q8TCT8); assay: FBA/SPPL2a co-transfected HEK 293T cell cleavage assay (Aβ ELISA, Western blot); assay type: cell-based; details: overnight
T1 construct: expressed in transfected cells; host or cells: HEK 293T
T1 sequence (Q8TCT8 26-520): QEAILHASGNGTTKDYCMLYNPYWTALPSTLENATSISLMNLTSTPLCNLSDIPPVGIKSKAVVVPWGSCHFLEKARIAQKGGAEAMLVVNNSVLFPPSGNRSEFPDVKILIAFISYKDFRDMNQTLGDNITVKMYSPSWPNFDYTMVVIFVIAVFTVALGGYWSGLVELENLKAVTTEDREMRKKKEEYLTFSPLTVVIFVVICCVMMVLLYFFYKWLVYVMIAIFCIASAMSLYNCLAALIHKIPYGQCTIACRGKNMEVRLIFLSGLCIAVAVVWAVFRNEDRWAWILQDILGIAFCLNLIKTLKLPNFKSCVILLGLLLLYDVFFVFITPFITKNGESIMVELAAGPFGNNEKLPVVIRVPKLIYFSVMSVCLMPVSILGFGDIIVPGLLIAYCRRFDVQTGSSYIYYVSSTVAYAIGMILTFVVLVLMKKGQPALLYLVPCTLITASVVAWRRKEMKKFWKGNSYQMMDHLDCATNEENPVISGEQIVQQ

γ-secretase = system: γ-secretase; set-up: method as in PMID 24352661, PMID 23791707; details: cited from earlier work

With `CC(C)C[C@H](NC(=O)OCc1ccccc1)C(=O)N[C@@H](CC(C)C)C(=O)NCC(=O)CNC(=O)[C@H](CC(C)C)NC(=O)[C@H](CC(C)C)NC(=O)OCc1ccccc1` [(Z-LL)2 ketone] as the compound, how does the inhibition at 10 µM (SPPL2a) read?
The inhibition at 10 µM was over 75%.

And the “inhibition of γ-secretase cleavage of APP” value (γ-secretase)?
The value was “does not inhibit”.
